Experiments:
[1] = molecular target: Histone Deacetylase 4 (HDAC4) catalytic domain (Homo sapiens (Human), UniProt P56524); assay: Biochemical HDAC inhibition assay, fluorogenic substrate Boc-Lys(Tfa)-AMC
Method: The potency of compounds is quantified by measuring the Histone Deacetylase 4 (HDAC4) catalytic domain enzymatic activity using the fluorogenic substrate, Boc-Lys(Tfa)-AMC. The substrate is deacetylated to Boc-Lys-AMC by HDAC4. Cleavage by trypsin results in the release of the fluorophore AMC from the deacetylated substrate. The fluorescence of the sample is directly related to the histone deacetylase activity in the sample.
Stocks of 60 μL aliquots of the 10 mM compound in DMSO are prepared and stored at −20° C. From one stock aliquot of each compound to be tested and the reference compound, a 16-point serial dilution is prepared according to Table 1 using a 125 μL 16-channel Matrix multi-channel pipette (Matrix Technologies Ltd).
2 μL (200×) of each diluted solution and each control (full activity: 100% DMSO alone or full inhibition 1 mM) is stamped into V-bottomed polypropylene 384-well compound plates using either the Bravo (384-well head from Agilent) or 12.5 μL 16-channel Matrix multi-channel pipette (Matrix Technologies Ltd). Each well with the 200× compound solution is diluted 1:20 by the addition of 38 μL assay buffer+DMSO (10.5% DMSO, 45 mM Tris-HCl, 123 mM NaCl, 2.4 mM KCl, and 0.9 mM MgCl2 at pH 8.0 and equilibrated to room temperature).
The HDAC4 catalytic domain enzyme is human catalytic domain HDAC4 protein (amino acids 648-1032) with a C-terminal 6× histidine tag, produced by BioFocus. A working solution of enzyme is prepared from a 500 μg/mL stock aliquot of HDAC4 catalytic domain (thawed on ice) diluted to 0.2 μg/mL with assay buffer (50 mM Tris-HCl, 137 mM NaCl, 2.7 mM KCl, and 1 mM MgCl2 at pH 8 and equilibrated to room temperature) just prior to the addition of the enzyme to the assay.
5× (50 μM) substrate is prepared just prior to the addition to the assay. A 1 mM substrate stock is made by diluting a 100 mM Boc-Lys(Tfa)-AMC in DMSO solution 1:100 by adding it drop-wise to assay buffer (equilibrated to room temperature) while vortexing at slow speed to prevent precipitation. The 5× substrate is prepared by diluting the 1 mM substrate solution 1:20 by adding it drop-wise to assay buffer (equilibrated to room temperature) while vortexing at slow speed to prevent precipitation.
3× (30 μM) Developer/Stop Solution is prepared just prior to addition to the plate by diluting a stock solution of 10 mM reference compound 1:333 in 25 mg/mL trypsin (PAA Laboratories Ltd.) equilibrated to room temperature.
5 μL of each solution of 1:20 diluted compound from above is transferred to a clear bottomed, black, 384-well assay plate using the Bravo or the Janus (384-well MDT head from Perkin Elmer). Using a 16-channel Matrix multi-channel pipette, 35 μL of the working solution of HDAC4 catalytic domain enzyme (0.2 μg/mL in assay buffer) is transferred to the assay plate. […] The assay plate is then shaken for two minutes on an orbital shaker at 900 rpm (rotations per minute). Next the plate is incubated for 15 minutes at 37° C. The reaction is stopped by adding 25 μL of 3× (30 μM) developer/stop solution to the assay plates using either the Bravo, Janus or a 16-channel Matrix multi-channel pipette. Assay plates are then shaken for 5 minutes on an orbital shaker at 1200 rpm. Next, the assay plates are incubated at 37° C. for 1 hour in a tissue culture incubator. Finally, the fluorescence is measured (Excitation: 355 nm, Emission: 460 nm) using PerkinElmer EnVision in top read mode.

[2] = tested on: cellular histone deacetylase enzymatic activity in Jurkat E6-1 cells; assay: Inhibition of cellular HDAC activity, Boc-Lys(Tfa)-AMC substrate (Cell Lys-TFA); type: cell-based; conditions: Homo sapiens, Jurkat E6.1, Lys-TFA substrate
Procedure, shortened: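 Jurkat E6-1 cells (75,000/well) were treated with a 16-point compound dilution for 2 h at 37 °C, then exposed to Boc-Lys(Tfa)-AMC for 3 h. Lysis buffer containing trypsin was added overnight (15-16 h), and AMC fluorescence was read at Ex 355/Em 460 nm.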

[3] = tested on: cellular histone deacetylase activity (Lys-Ac); assay: Inhibition of cellular HDAC activity (Cell Lys-Ac); type: cell-based; conditions: Lys-Ac substrate

Chain of Histone Deacetylase 4 (HDAC4) catalytic domain (P56524 648-1032): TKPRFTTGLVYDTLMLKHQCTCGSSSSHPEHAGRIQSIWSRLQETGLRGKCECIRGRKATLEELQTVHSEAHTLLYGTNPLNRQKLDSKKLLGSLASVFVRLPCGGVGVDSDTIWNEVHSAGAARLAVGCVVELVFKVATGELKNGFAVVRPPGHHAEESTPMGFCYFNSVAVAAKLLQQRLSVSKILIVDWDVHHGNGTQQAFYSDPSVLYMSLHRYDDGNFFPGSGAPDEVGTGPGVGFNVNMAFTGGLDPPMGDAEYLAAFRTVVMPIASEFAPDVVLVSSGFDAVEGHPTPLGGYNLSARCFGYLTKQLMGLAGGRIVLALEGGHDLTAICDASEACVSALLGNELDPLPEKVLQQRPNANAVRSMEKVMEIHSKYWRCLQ

| SMILES | IC50 [1] | IC50 [2] | IC50 [3] |
| --- | --- | --- | --- |
| Cc1c(F)cccc1[C@]1(C(=O)NO)Cc2cnc(C(F)(F)F)nc2C1 [Example 56, (S)-6-(3-Fluoro-2-methylphenyl)-N-hydroxy-2-(trifluoromethyl)-6,7-dihydro-5H-cyclopenta[d]pyrimidine-6-carboxamide] | 880 nM | 1800 nM | > 50000 nM |
| Cc1c(F)cccc1[C@]1(C(=O)NO)CCc2c1cnn2Cc1ccccc1 [Example 93, (R)-1-benzyl-4-(3-fluoro-2-methylphenyl)-N-hydroxy-1,4,5,6-tetrahydrocyclopenta[c]pyrazole-4-carboxamide] | 27 nM | 170 nM | > 50000 nM |
| Cc1c(F)cccc1[C@]1(C(=O)NO)CCc2nc(-c3ccc(F)cc3)sc21 [Example 78, (S)-6-(3-Fluoro-2-methylphenyl)-2-(4-fluorophenyl)-N-hydroxy-5,6-dihydro-4H-cyclopenta[d]thiazole-6-carboxamide] | 120 nM | 500 nM | > 50000 nM |
| Cc1c(F)cccc1[C@]1(C(=O)NO)Cc2cnn(-c3cnccn3)c2C1 [Example 19, (S)-5-(3-Fluoro-2-methylphenyl)-N-hydroxy-1-(pyrazin-2-yl)-1,4,5,6-tetrahydrocyclopenta[c]pyrazole-5-carboxamide] | 38 nM | 53 nM | > 50000 nM |
| Cc1c(F)cccc1[C@]1(C(=O)NO)Cc2cnn(-c3c(F)cccc3Cl)c2C1 [Example 14, (S)-1-(2-Chloro-6-fluorophenyl)-5-(3-fluoro-2-methylphenyl)-N-hydroxy-1,4,5,6-tetrahydrocyclopenta[c]pyrazole-5-carboxamide] | 15 nM | 11 nM | > 50000 nM |
| Cc1c(F)cccc1[C@]1(C(=O)NO)Cc2cnn(-c3ccccc3)c2C1 [Example 1, (S)-5-(3-Fluoro-2-methylphenyl)-N-hydroxy-1-phenyl-1,4,5,6-tetrahydrocyclopenta[c]pyrazole-5-carboxamide] | 28 nM | 59 nM | > 50000 nM |
| Cc1c(F)cccc1C1(C(=O)NO)CCc2nc(C3CC3)sc2C1 (stereo not drawn) [Example 42, 2-Cyclopropyl-6-(3-fluoro-2-methylphenyl)-N-hydroxy-4,5,6,7-tetrahydrobenzo[d]thiazole-6-carboxamide] | 770 nM | 320 nM | > 50000 nM |
| Cc1c(F)cccc1[C@]1(C(=O)NO)Cc2cnn(C(C)C)c2C1 [Example 53, (S)-5-(3-Fluoro-2-methylphenyl)-N-hydroxy-1-isopropyl-1,4,5,6-tetrahydrocyclopenta[c]pyrazole-5-carboxamide] | 67 nM | 230 nM | > 50000 nM |
| Cc1c(F)cccc1[C@]1(C(=O)NO)Cc2cnn(C3CCCC3)c2C1 [Example 18, (S)-1-Cyclopentyl-5-(3-fluoro-2-methylphenyl)-N-hydroxy-1,4,5,6-tetrahydrocyclopenta[c]pyrazole-5-carboxamide] | 37 nM | 163 nM | > 50000 nM |
| O=C(NO)C1(c2ccccc2)CCc2cn(CC(F)(F)F)nc2CC1 (stereo not drawn) [Example 86, N-Hydroxy-6-phenyl-2-(2,2,2-trifluoroethyl)-2,4,5,6,7,8-hexahydrocyclohepta[c]pyrazole-6-carboxamide] | 8200 nM | 46700 nM | > 50000 nM |
| Cc1c(F)cccc1[C@]1(C(=O)NO)Cc2nn(C)c(-c3ccc(F)cc3)c2C1 [Example 79, (R)-5-(3-Fluoro-2-methylphenyl)-3-(4-fluorophenyl)-N-hydroxy-2-methyl-2,4,5,6-tetrahydrocyclopenta[c]pyrazole-5-carboxamide] | 53 nM | 26 nM | 36500 nM |
| Cc1c(F)cccc1[C@]1(C(=O)NO)CCc2nc(-c3ccccc3Cl)ncc21 [Example 49, (R)-2-(2-chlorophenyl)-5-(3-fluoro-2-methylphenyl)-N-hydroxy-6,7-dihydro-5H-cyclopenta[d]pyrimidine-5-carboxamide] | 102 nM | 250 nM | > 50000 nM |

— US10065948B2, “Histone deacetylase inhibitors and compositions and methods of use thereof” (CHDI Foundation, Inc., priority 2014, dated 2018)
